{"source": "PubChem BioAssay (NCI)", "assay_in_all_cases": "NCI anticancer screen, dose series, 48 h", "key": {"[1]": {"test_system": "786-0 renal"}, "[2]": {"test_system": "A498 renal"}, "[3]": {"test_system": "A549 NSCLC"}, "[4]": {"test_system": "ACHN renal"}, "[5]": {"test_system": "BT-549 breast"}, "[6]": {"test_system": "CAKI-1 renal"}, "[7]": {"test_system": "CCRF-CEM leukemia"}, "[8]": {"test_system": "COLO 205 colon"}, "[9]": {"test_system": "DU-145 prostate"}, "[10]": {"test_system": "EKVX NSCLC"}, "[11]": {"test_system": "HCC-2998 colon"}, "[12]": {"test_system": "HCT-116 colon"}, "[13]": {"test_system": "HCT-15 colon"}, "[14]": {"test_system": "HL-60(TB) leukemia"}, "[15]": {"test_system": "HOP-62 NSCLC"}, "[16]": {"test_system": "HOP-92 NSCLC"}, "[17]": {"test_system": "HS 578T breast"}, "[18]": {"test_system": "HT29 colon"}, "[19]": {"test_system": "IGROV1 ovarian"}, "[20]": {"test_system": "KM12 colon"}, "[21]": {"test_system": "LOX IMVI melanoma"}, "[22]": {"test_system": "M14 melanoma"}, "[23]": {"test_system": "MALME-3M melanoma"}, "[24]": {"test_system": "MCF7 breast"}, "[25]": {"test_system": "MDA-MB-231 breast"}, "[26]": {"test_system": "MDA-MB-435"}, "[27]": {"test_system": "MOLT-4 leukemia"}, "[28]": {"test_system": "NCI-H226 lung"}}, "note": "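Growth conditions: 96-well plates. Treatment: test compound, 48 hours, 5 concentrations. Analysis: linear interpolation between bracketing concentrations; unreached endpoints set to highest concentration. GI50 = concentration required for 50% inhibition of growth. Definition used: TGI = concentration required for complete inhibition of growth.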", "data": [{"compound": "C=CCN=c1sc2c(n1NC(=O)c1cc3ccc1CCc1ccc(cc1)CC3)C(=O)c1ccccc1C2=O", "values": [{"measurement": "GI50", "setting": "[1]", "result": 2.3, "unit": "µM"}, {"measurement": "TGI", "setting": "[1]", "result": 5.7, "unit": "µM"}, {"measurement": "GI50", "setting": "[2]", "result": 10.5, "unit": "µM"}, {"measurement": "TGI", "setting": "[2]", "result": 47, "unit": "µM"}, {"measurement": "GI50", "setting": "[3]", "result": 2.26, "unit": "µM"}, {"measurement": "TGI", "setting": "[3]", "result": 5.61, "unit": "µM"}, {"measurement": "GI50", "setting": "[4]", "result": 1.42, "unit": "µM"}, {"measurement": "TGI", "setting": "[4]", "result": 2.91, "unit": "µM"}, {"measurement": "GI50", "setting": "[5]", "result": 1.53, "unit": "µM"}, {"measurement": "TGI", "setting": "[5]", "result": 2.91, "unit": "µM"}, {"measurement": "GI50", "setting": "[6]", "result": 1.18, "unit": "µM"}, {"measurement": "TGI", "setting": "[6]", "result": 2.86, "unit": "µM"}, {"measurement": "GI50", "setting": "[7]", "result": 2.39, "unit": "µM"}, {"measurement": "TGI", "setting": "[7]", "result": "> 100", "unit": "µM"}, {"measurement": "GI50", "setting": "[8]", "result": 1.94, "unit": "µM"}, {"measurement": "TGI", "setting": "[8]", "result": 4.24, "unit": "µM"}, {"measurement": "GI50", "setting": "[9]", "result": 1.85, "unit": "µM"}, {"measurement": "TGI", "setting": "[9]", "result": 3.45, "unit": "µM"}, {"measurement": "GI50", "setting": "[10]", "result": 1.39, "unit": "µM"}, {"measurement": "TGI", "setting": "[10]", "result": 3.46, "unit": "µM"}, {"measurement": "GI50", "setting": "[11]", "result": 1.62, "unit": "µM"}, {"measurement": "TGI", "setting": "[11]", "result": 3.14, "unit": "µM"}, {"measurement": "GI50", "setting": "[12]", "result": 0.577, "unit": "µM"}, {"measurement": "TGI", "setting": "[12]", "result": 2.58, "unit": "µM"}, {"measurement": "GI50", "setting": "[13]", "result": 1.52, "unit": "µM"}, {"measurement": "TGI", "setting": "[13]", "result": 3.5, "unit": "µM"}, {"measurement": "GI50", "setting": "[14]", "result": 0.395, "unit": "µM"}, {"measurement": "TGI", "setting": "[14]", "result": 3.26, "unit": "µM"}, {"measurement": "GI50", "setting": "[15]", "result": 1.96, "unit": "µM"}, {"measurement": "TGI", "setting": "[15]", "result": 4.85, "unit": "µM"}, {"measurement": "GI50", "setting": "[16]", "result": 1.56, "unit": "µM"}, {"measurement": "TGI", "setting": "[16]", "result": 4.19, "unit": "µM"}, {"measurement": "GI50", "setting": "[17]", "result": 2.04, "unit": "µM"}, {"measurement": "TGI", "setting": "[17]", "result": 6.93, "unit": "µM"}, {"measurement": "GI50", "setting": "[18]", "result": 3.09, "unit": "µM"}, {"measurement": "TGI", "setting": "[18]", "result": "> 100", "unit": "µM"}, {"measurement": "GI50", "setting": "[19]", "result": 1.13, "unit": "µM"}, {"measurement": "TGI", "setting": "[19]", "result": 3.21, "unit": "µM"}, {"measurement": "GI50", "setting": "[20]", "result": 2.68, "unit": "µM"}, {"measurement": "TGI", "setting": "[20]", "result": 8.8, "unit": "µM"}, {"measurement": "GI50", "setting": "[21]", "result": 0.532, "unit": "µM"}, {"measurement": "TGI", "setting": "[21]", "result": 2.1, "unit": "µM"}, {"measurement": "GI50", "setting": "[22]", "result": 1.63, "unit": "µM"}, {"measurement": "TGI", "setting": "[22]", "result": 3.3, "unit": "µM"}, {"measurement": "GI50", "setting": "[23]", "result": 0.383, "unit": "µM"}, {"measurement": "TGI", "setting": "[23]", "result": 1.58, "unit": "µM"}, {"measurement": "GI50", "setting": "[24]", "result": 1.23, "unit": "µM"}, {"measurement": "TGI", "setting": "[24]", "result": 3.36, "unit": "µM"}, {"measurement": "GI50", "setting": "[25]", "result": 1.27, "unit": "µM"}, {"measurement": "TGI", "setting": "[25]", "result": 6.68, "unit": "µM"}, {"measurement": "GI50", "setting": "[26]", "result": 0.194, "unit": "µM"}, {"measurement": "TGI", "setting": "[26]", "result": 0.363, "unit": "µM"}, {"measurement": "GI50", "setting": "[27]", "result": 1.22, "unit": "µM"}, {"measurement": "TGI", "setting": "[27]", "result": 5.76, "unit": "µM"}, {"measurement": "GI50", "setting": "[28]", "result": 1.61, "unit": "µM"}]}]}
